# Data published in patent publication US20070037872A1, “Inducing peripheral blood vesel vasodilation” (Mars, Incorporated, priority 2005, published 2007).
# Tested on: peripheral microvascular endothelial function
# Assay: PAT with reactive hyperemia after L-NMMA infusion followed by cocoa beverage
# Format: in vivo, human
# Description: Peripheral arterial tonometry (PAT) measurements were taken of three volunteers according to the following study. This is a non-invasive technique for examining peripheral microvascular endothelial function. Microvascular endothelial function is assessed by the direct measurement of changes in digital (finger) pulse volume following reactive hyperemia.
# On study days, the subjects reported in a fasted state between 7:30 and 9:00 a.m. Body weight, resting heart rate, and blood pressure were all re-measured. […] Subjects then lied down on their backs to acclimatize to ambient conditions. After 30 minutes, a non-invasive, sterile, single-use finger probe was fitted to a finger and a baseline PAT reading was taken and recorded for 10 minutes. The subjects were then subjected to a reactive hyperemia procedure (“RH”) which consisted of a period of blood flow occlusion to the measurement arm using an upper arm blood pressure cuff, pressurized to achieve a supra-systolic level (equivalent to about 60 mm mercury above systolic blood pressure) for 5 minutes. Then the cuff was released and the data recorded for another five minutes. Following this first reading, subjects drank 3 bottles of Cocoa Drink A (total 483 mg). Over the next six hours, the PAT response was monitored at two, four and six hours.
# The infusion of L-NMMA occurred over 30 minutes (1mg/kg/min for the first 3 minutes and then 0.2 mg/kg/min for the next 27 minutes). Following infusion of the L-NMMA, 3 bottles of the beverage were fed (483 mg) per subject. Readings were done for baseline, after infusion of L-NMMA and after consumption of cocoa.
# Referring to Table 1, RH indicates PAT value following a reactive hyperemia procedure; “baseline” refers to baseline reading prior to occlusion period.
# The data supports an NO-independent mechanism of action of the compounds described herein. […] This indicates the blood flow was affected via an NO-independent mechanism. Peripheral blood flow/vasodilation is a function of both NO and NO-independent vasodilators. The endothelium derived NO is one of the most important mediators of vascular tone; however, NO is not the only compound regulating vascular tone. As such, being able to operate via NO-independent mechanisms means that the compound of the invention can exert important vasodilatory effects on the microvasculature which are independent of an intact endothelium. If the endothelium is compromised in any way and simply cannot produce enough NO, the fact that the compounds of the invention act in an endothelium independent fashion offers greater therapeutic benefits, which was previously unexpected.
# [1] = Subject #1, Day 11, after 30 min intravenous infusion of L-NMMA
# [2] = Subject #5, Day 10, after 30 min intravenous infusion of L-NMMA
# [3] = Subject #6, Day 11, after 30 min intravenous infusion of L-NMMA
smiles,measurement,setting,value
CNC(=N)NCCC[C@H](N)C(=O)O [LNMMA],Baseline (baseline PAT reading prior to occlusion period),[1],616
same,RH (PAT value following a reactive hyperemia procedure),[1],1.61
same,Baseline (baseline PAT reading prior to occlusion period),[2],689
same,RH (PAT value following a reactive hyperemia procedure),[2],1.42
same,Baseline (baseline PAT reading prior to occlusion period),[3],597
same,RH (PAT value following a reactive hyperemia procedure),[3],1.75
same,change in the RH value,"all three subjects, after L-NMMA infusion",dramatic reduction
